Results taken from patent publication US12508261B2, “Methods of treating depression with vortioxetine” (Rundle Research LLC, priority 2017, dated 2025).

Test: Clinical pharmacokinetic study (RUN-001): vortioxetine 5 mg once daily for 29 days, then 28 days washout, obese vs normal-weight subjects
Type: in vivo, human
Settings: both, human, in vivo
Procedure: To test if the obese patients would require different washout guidelines for preventing serotonin syndrome, 16 obese subjects (BMI≥35) and 13 normal subjects (BMI<25) completed a clinical trial where they were administered daily with low doses (5 mg/day) of vortioxetine for 29 days in a controlled study. All subjects were subsequently tracked for 28 days after discontinuing vortioxetine on day 29. Blood samples were collected and processed according to standard techniques.
The normal-weight control group consisted of healthy male and female volunteers aged 18 to 45 years. Their body mass index (BMI) values fell in the range of […]. […] Normal weight and obese subjects were matched as closely as possible for gender and age.
CYP2D6 genotype status was determined from whole blood samples drawn from each subject. Known alleles of CYP2D6 were tested for, as well as the presence of gene duplications (LabCorp, Inc.). CYP2D6 metabolizer status was categorized as ultra-rapid, extensive, intermediate, or poor. Ultra-rapid and poor metabolizers were not included in the study.
All subjects received vortioxetine, 5 mg once daily in the morning, for 29 days. The first dose was on Day 1, and the last dose was on Day 29. Blood sampling continued for another 28 days after the last dose, through Day 57.
Subjects spent 12 hours in the study unit on Day 1 (first dose of vortioxetine) and Day 29 (last dose of vortioxetine). On those two study days, venous blood samples (7 mL each) were drawn prior to the dose of vortioxetine, and at 1, 2, 4, 6, 8, 10, and 12 hours after dosage.
During the 29-day period of daily vortioxetine administration, subjects returned to the study unit in the morning of the following study days: 2, 3, 5, 8, 10, 12, 15, 17, 19, 22, 24, 26, and 29. At each visit, a single venous blood sample (7 mL) was drawn before the daily dose of vortioxetine. Subjects underwent a brief interview to assess subjective effects and possible adverse events. Subjects were then discharged until the next scheduled visit. They were provided with vortioxetine doses sufficient for daily morning administration until the next visit. No more than 2 consecutive doses of vortioxetine were taken on an outpatient basis.
On Day 29 (the final dose of vortioxetine), subjects spent 12 hours in the study unit as described above. They returned to the study unit for a single blood sample on the mornings of the following Days: 30, 31, 33, 36, 38, 40, 43, 45, 47, 50, 52, 54, and 57.
Plasma concentrations of vortioxetine were determined by liquid chromatography—mass spectrometry using a Shimadzu HPLC system coupled to a Sciex API-4000 mass spectrometer.
The internal standard (vortioxetine-d8) was added to calibration standards, quality control samples, and unknown study samples. All samples were extracted with methyl tert-butyl ether. The organic phase was separated and evaporated to dryness; the reconstituted extract was injected into the HPLC system. The HPLC column was a Unison UK-C18, 50 mm×2 mm, 3 micron particle size. The mobile phase consisted of an organic component (0.1% formic acid in acetonitrile) and an aqueous component (0.1% formic acid and 2 mM ammonium acetate in water). This was delivered in gradient mode at a net flow rate of 0.4 mL/min, with the organic fraction varying from 40% to 96%. m/z monitored were: 299.1/150.1 for vortioxetine, and 307.1/153 for vortioxetine-d8. The limit of quantitation was 0.1 ng/mL. […] All samples from a given study subject were extracted and analyzed at the same time using the same calibration standards.
Based on the clinical trials discussed above, several equations were derived which allow an individual to calculate the washout period (i.e., the time between stopping vortioxetine and initiating treatment with an MAOI). Data points to consisted of pre-dose plasma vortioxetine concentration (C) on each study day (t), both during (Days 1-29) and after (Days 30-57) the period of vortioxetine administration. […]

elimination half-life: 78.2 h
Structure (SMILES): CC[C@@H]([C@H](C)O)n1ncn(-c2ccc(N3CCN(c4ccc(OC[C@@H]5CO[C@@](Cn6cncn6)(c6ccc(F)cc6F)C5)cc4)CC3)cc2)c1=O [posaconazole]
